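Briefly, cells in 96-well plates were exposed to five compound concentrations for 48 h, and endpoints were estimated by linear interpolation. GI50 is the concentration that inhibits growth by half.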 Active and inactive are the calls of the source. Rule as the data show it: active = GI50 up to about 1.1 µM and inactive = higher.
Columns and labels:
Assay in all cases: growth of human tumour cells (NCI), 48 h
A498 = system: A498
COLO 205 = system: COLO 205
HL-60 = system: HL-60
HOP-62 = system: HOP-62
HT-29 = system: HT-29
MDA-MB-435 = system: MDA-MB-435
MOLT-4 = system: MOLT-4
NCI/ADR-RES = system: NCI/ADR-RES
OVCAR-5 = system: OVCAR-5
SF-539 = system: SF-539
SK-MEL-2 = system: SK-MEL-2
SNB-19 = system: SNB-19
SNB-75 = system: SNB-75
UACC-257 = system: UACC-257
UO-31 = system: UO-31
EKVX = system: EKVX
Hs-578T = system: Hs-578T
SF-268 = system: SF-268
T47D = system: T47D

| SMILES | GI50 (A498) | GI50 (COLO 205) | GI50 (HL-60) | GI50 (HOP-62) | GI50 (HT-29) | GI50 (MDA-MB-435) | GI50 (MOLT-4) | GI50 (NCI/ADR-RES) | GI50 (OVCAR-5) | GI50 (SF-539) | GI50 (SK-MEL-2) | GI50 (SNB-19) | GI50 (SNB-75) | GI50 (UACC-257) | GI50 (UO-31) | GI50 (EKVX) | GI50 (Hs-578T) | GI50 (SF-268) | GI50 (T47D) |
| --- | --- | --- | --- | --- | --- | --- | --- | --- | --- | --- | --- | --- | --- | --- | --- | --- | --- | --- | --- |
| N/N=C(\Nc1ccccc1)SCc1ccccc1 | > 100 µM (inactive) | > 100 µM (inactive) | > 100 µM (inactive) | > 100 µM (inactive) | > 100 µM (inactive) | > 100 µM (inactive) | > 100 µM (inactive) | > 100 µM (inactive) | > 100 µM (inactive) | > 100 µM (inactive) | > 100 µM (inactive) | > 100 µM (inactive) | 41.7 µM (inactive) | > 100 µM (inactive) | > 100 µM (inactive) |  |  |  |  |
| COC1(OC)CC2C(=O)N(Cc3ccccc3)C1CC2S(=O)(=O)c1ccccc1 (stereo not given) |  | > 100 µM (inactive) | > 100 µM (inactive) | > 100 µM (inactive) | > 100 µM (inactive) |  | > 100 µM (inactive) |  |  | > 100 µM (inactive) | > 100 µM (inactive) | > 100 µM (inactive) | > 100 µM (inactive) | > 100 µM (inactive) | 62.1 µM (inactive) | > 100 µM (inactive) |  |  |  |
| O=C(O)C(=Cc1ccc(-c2ccc([N+](=O)[O-])cc2)o1)C(=O)O | > 100 µM (inactive) | > 100 µM (inactive) | > 10 µM (inactive) | < 0.01 µM (active) | > 100 µM (inactive) | > 100 µM (inactive) | > 100 µM (inactive) | > 100 µM (inactive) | > 100 µM (inactive) | > 100 µM (inactive) | > 100 µM (inactive) | > 100 µM (inactive) | > 100 µM (inactive) | > 100 µM (inactive) | > 100 µM (inactive) | > 100 µM (inactive) | > 100 µM (inactive) | > 100 µM (inactive) |  |
| CCN(CC)CCn1nc(N)c2nc3ccccc3nc21 | > 100 µM (inactive) |  | > 100 µM (inactive) | > 100 µM (inactive) | > 100 µM (inactive) | > 100 µM (inactive) | 63.7 µM (inactive) | > 100 µM (inactive) | > 100 µM (inactive) | > 100 µM (inactive) | > 100 µM (inactive) | > 100 µM (inactive) | 39.9 µM (inactive) | > 100 µM (inactive) | > 100 µM (inactive) | > 100 µM (inactive) | > 100 µM (inactive) | > 100 µM (inactive) |  |
| Cc1cn2c(/C=N/NC(=N)N)c(-c3cccc([N+](=O)[O-])c3)nc2s1 | 1.48 µM (inactive) |  | 1.92 µM (inactive) | 1.38 µM (inactive) | 0.514 µM (active) | 1.82 µM (inactive) | 1.77 µM (inactive) | 28.4 µM (inactive) | 2.07 µM (inactive) | 1.98 µM (inactive) | 1.96 µM (inactive) |  |  | 2.11 µM (inactive) | 5.62 µM (inactive) | 2.38 µM (inactive) | 2.38 µM (inactive) | 1.08 µM (active) |  |
| CC(C)(C)OC(=O)[C@@H]1ON2O[C@H](OC3CCCC3(c3ccccc3)c3ccccc3)C[C@H]3OC(=O)[C@@H]1[C@H]32 (stereo not given in full) |  | 37.3 µM (inactive) |  | 61.1 µM (inactive) | 38.8 µM (inactive) | 57.9 µM (inactive) | > 10 µM (inactive) | 33.9 µM (inactive) | > 100 µM (inactive) | > 100 µM (inactive) | 14.8 µM (inactive) | > 100 µM (inactive) | 25.8 µM (inactive) | 71.3 µM (inactive) | 71.9 µM (inactive) | 73.5 µM (inactive) |  | 34.4 µM (inactive) | 54 µM (inactive) |
| Clc1ccc(/C=c2\nc(-c3ccccc3)n3c2nc2ccccc23)cc1 | > 100 µM (inactive) | > 100 µM (inactive) | > 100 µM (inactive) | 38.4 µM (inactive) | > 100 µM (inactive) | > 100 µM (inactive) | > 100 µM (inactive) | 28.2 µM (inactive) | > 100 µM (inactive) | 22.4 µM (inactive) | > 100 µM (inactive) | > 100 µM (inactive) |  | > 100 µM (inactive) | > 100 µM (inactive) | 19.7 µM (inactive) | 49.3 µM (inactive) | 34.4 µM (inactive) |  |
| C[C@H](CC[C@@H](O)C(C)(C)O)[C@H]1CC[C@@]2(C)[C@@H]3CC=C4[C@@H](CC[C@H](O)C4(C)C)[C@]3(C)C(=O)C[C@]12C [BRYODULCOSIGENIN] | > 50 µM (inactive) | 11.1 µM (inactive) | 24.5 µM (inactive) | > 50 µM (inactive) | 10.8 µM (inactive) | 37.6 µM (inactive) | 19.5 µM (inactive) | 14.7 µM (inactive) | 16.8 µM (inactive) | > 50 µM (inactive) | 40.7 µM (inactive) | > 50 µM (inactive) |  | 49 µM (inactive) | 34 µM (inactive) | 21.2 µM (inactive) | 45.7 µM (inactive) |  |  |
| O=C1CN(c2ccc(Cl)cc2)C(=O)CN1CCN1CC(=O)N(c2ccc(Cl)cc2)CC1=O | > 100 µM (inactive) | > 100 µM (inactive) | > 100 µM (inactive) | > 100 µM (inactive) | > 100 µM (inactive) | > 100 µM (inactive) | > 100 µM (inactive) |  | > 100 µM (inactive) |  |  | > 100 µM (inactive) | > 100 µM (inactive) | > 100 µM (inactive) | > 100 µM (inactive) | > 100 µM (inactive) | > 100 µM (inactive) | > 100 µM (inactive) |  |
| CO/C(=N\N=C\c1ccc(OC)cc1OC)c1ccncc1 | > 10 µM (inactive) | > 10 µM (inactive) | > 10 µM (inactive) | > 10 µM (inactive) |  |  | > 10 µM (inactive) | > 10 µM (inactive) | > 10 µM (inactive) | > 10 µM (inactive) | > 10 µM (inactive) | > 10 µM (inactive) | > 10 µM (inactive) |  | > 10 µM (inactive) |  |  | > 10 µM (inactive) | > 10 µM (inactive) |
| Cc1cc2nc3[nH]nc(N)c3nc2cc1C | > 100 µM (inactive) | 44.4 µM (inactive) | > 100 µM (inactive) | 70 µM (inactive) | > 100 µM (inactive) | > 100 µM (inactive) | > 100 µM (inactive) | > 100 µM (inactive) | > 100 µM (inactive) |  | > 100 µM (inactive) | > 100 µM (inactive) | 26.2 µM (inactive) | > 100 µM (inactive) | > 100 µM (inactive) | 31.4 µM (inactive) | 52.7 µM (inactive) | > 100 µM (inactive) |  |
| CCCCCCCCCCCCCCCCC(C(=O)O)C(O)(CC(=O)O)C(=O)O (stereo not given) | 21 µM (inactive) | 18.7 µM (inactive) | 14.8 µM (inactive) | 17.2 µM (inactive) | 21.2 µM (inactive) | 34.8 µM (inactive) | 25.5 µM (inactive) | 57 µM (inactive) | 17.9 µM (inactive) | 28.1 µM (inactive) | 18.9 µM (inactive) | 23.9 µM (inactive) | 20 µM (inactive) | 34.1 µM (inactive) | 20.3 µM (inactive) | 20.2 µM (inactive) | 24.1 µM (inactive) | 28.6 µM (inactive) |  |

From ChEMBL document CHEMBL1201862, “PubChem BioAssay data set” (2004)
